Source: BigSolDB 2.1

CC#CCn1c(N2CCC[C@@H](N)C2)nc2c1c(=O)n(Cc1nc(C)c3ccccc3n1)c(=O)n2C
solubility (mole fraction)
Settings | 273.15 K | 278.15 K | 283.15 K | 288.15 K | 293.15 K | 298.15 K | 303.15 K | 308.15 K | 313.15 K
in acetonitrile | 0.000425 | 0.000546 | 0.000675 | 0.000821 | 0.000974 | 0.00114 | 0.00132 | 0.00151 | 0.00172
in ethanol | 0.000511 | 0.000637 | 0.000782 | 0.000947 | 0.00113 | 0.00137 | 0.00163 | 0.00194 | 0.00231
in isopropanol | 0.000227 | 0.000282 | 0.000343 | 0.000421 | 0.000496 | 0.000578 | 0.000668 | 0.000765 | 0.000874
in methanol | 0.00061 | 0.000778 | 0.00097 | 0.00121 | 0.00148 | 0.00179 | 0.00213 | 0.00254 | 0.00302
in n-propanol | 0.000342 | 0.000403 | 0.000478 | 0.000573 | 0.00067 | 0.000794 | 0.00093 | 0.00108 | 0.00125
